Reference: patent US8173767B2, “Synthetic peptide vaccines for HIV: the CBD epitope as an effective immunogen to elicit broadly neutralizing antibodies against HIV” (Institut Pasteur, priority 2003, dated 2012)
Ends that are not written are not given here. * marks the point of attachment. Biotin = O=C1N[C@H]2[C@H](CS[C@H]2CCCCC(=O)*)N1

Key:
[1] = tested on: rabbits (Fauves de Bourgogne); experiment: ELISA of sera from rabbit immunized with the C-20 peptide (plates coated with C-20); assay type: in vivo; conditions: rabbit Hermione; after the first 2 injections; serum dilution 1/2000
Method: A biotinylated C-20 peptide was synthesized as in Example 2. After synthesis the biotinylated C-20 peptide was solubilized in water containing 10% DMSO at a concentration of 2 mg/ml. 100 μg of this solution (corresponding to 50 μl) was mixed with 50 μg of streptavidin in 250 μl distilled water. This solution was then mixed with 250 μl of adjuvant; complete Freund's adjuvant (CFA) for the first injection and incomplete Freund's adjuvant (IFA) for the following injections. Rabbits (Fauves de Bourgogne) were injected intramuscularly with 500 μl of the antigen/adjuvant mixture. 10 ml of blood was collected from the rabbits before the first injection of antigen. This serum is referred to as S0 or pre-immune serum.
All sera were tested by ELISA using 2 types of plates (PVC and Maxisorp) coated with the C-20 peptide.

[2] = tested on: rabbits (Fauves de Bourgogne); experiment: ELISA of sera from rabbit immunized with the CBD-1 peptide (plates coated with CBD-1); assay type: in vivo
Method: The biotinylated CBD-1 peptide was solubilized in water containing 10% DMSO at a concentration of 2 mg/ml. 100 μg of this solution (50 μl) was mixed with 50 μg of streptavidin in 250 μl of distilled water. This solution was then mixed with 250 μl of complete Freund's adjuvant (CFA) for the first injection and incomplete Freund's adjuvant (IFA) for the following injections. 10 ml of blood was collected from the rabbits before the first injection of antigen; this serum was referred to as S0 or pre-immune serum.
The rabbits (Fauves de Bourgogne) were injected intramuscularly with 500 μl of the antigen/adjuvant mixture. The following Table 1 presents the injection and bleeding dates of the rabbit named “Aldernay”:
All sera were tested by ELISA using 2 types of plates (PVC and Maxisorp) coated with the CBD-1 peptide. The optical density (OD) was measured at 450 nm. An OD value above 0.20 was considered positive.

Midkine = experiment: Effect of the CBD-1 peptide on Midkine binding and entry into cells (confocal microscopy); assay type: cell-based
Method: (§1) Several studies in laser scanning confocal immunofluorescence microscopy were conducted to investigate the interaction of the CBD-1 peptide with cells and its effect on Midkine. […] Midkine binds its low affinity receptor, surface-expressed nucleolin, before entry into cells by an active process in which lipid rafts appear to be implicated (34).

HeLa cells = experiment: Entry of the CBD-1 peptide into cells (confocal immunofluorescence microscopy); assay type: cell-based
Method: as §1
On intact cells, the CBD-1 peptide appeared to interact with caveolin at the plasma membrane.
HeLa cells in culture medium were incubated (45 min at 37° C.) with the biotinylated CBD-1 peptide (5 μM). Cells were then washed and fixed with paraformaldehyde/Triton X-100 solution. […] The secondary antibody was Texas Red dye-conjugated donkey anti-rabbit IgG (Jackson ImmunoResearch Laboratories, PA). Confocal microscopy was performed as described previously (6).

caveolin = biological target: T1, caveolin (Homo sapiens, UniProt Q03135); experiment: Binding of biotinylated CBD-1 to caveolin in crude MT4 cell extracts (avidine-sepharose, immunoblot)
T1 construct: endogenous in cells
T1 sequence (Q03135 1-178): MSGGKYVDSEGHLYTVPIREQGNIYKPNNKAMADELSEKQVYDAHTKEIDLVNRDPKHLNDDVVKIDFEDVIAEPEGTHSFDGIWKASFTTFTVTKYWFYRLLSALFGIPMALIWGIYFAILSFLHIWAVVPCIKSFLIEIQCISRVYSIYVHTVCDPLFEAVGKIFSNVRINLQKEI
Method: MT4 cells were extracted in buffer containing 10 mM Hepes, pH 7.6, 50 mM KCl, 400 mM NaCl, 1 mM EDTA, protease inhibitor cocktail and 1% Triton X-100®. Extracts were centrifuged at 12,000×g and the supernatants were stored at […]. 100 μl of cell extracts were first diluted with 400 μl of homogenization buffer and left at 4° C. for 10 minutes before centrifuging at 12,000×g.
The diluted supernatants were then incubated at 4° C. in the presence of 0, 2, 5, 10 and 20 μM of the biotinylated CBD-1 peptide. After 90 minutes, 100 μl of avidine-sepharose were added in each sample and the samples were further incubated at 4° C. for 2 hours with gentle shaking. The samples were then washed extensively with PBS and proteins bound to avidine-sepharose were eluted in 100 μl of electrophoresis sample buffer containing SDS and analyzed by SDS-PAGE (using a 12.5% polyacrylamide gel) for immunoblotting with rabbit anti-caveolin 1 antibodies ([…]) as previously described (6).
Cell extracts were first incubated with 50 μM of CBD-1 (+) or without CBD-1 (−) before the addition of 10 μM biotinylated CBD-1 and further processed as above. Lane E represents the analysis of crude cell extracts diluted 1-fold in the electrophoresis sample buffer. […]

Substance: DGIWKASFTTFTVTKYWFYR (DGIWKASFTTFTVTKYWFYR) [C-20 peptide]
- antibodies against C-20 in serum (ELISA) [1]: significant amount of antibodies against C-20

Substance: L-E-Q-I-W-N-N-M-T-W-M-Q-W-D-K (LEQIWNNMTWMQWDK) [CBD-1 peptide]
- antibodies against CBD-1 in serum (ELISA) ([2]; after the first 3 injections, serum dilution 1/2,000): significant amount of antibodies against CBD-1
- immunogenicity of the peptide (anti-CBD-1 antibodies in serum, ELISA) ([2]; rabbit Aldernay, intramuscular, biotinylated peptide with streptavidin in CFA/IFA, OD 450 nm above 0.20 positive): immunogenic
- Midkine binding to cells (Midkine): without affecting Midkine binding to cells
- entry of Midkine into cells (Midkine): blocks entry of Midkine into cells
- entry of the peptide into cells (HeLa cells; dependence on incubation temperature): occurred at 37 °C but not at 20 °C

Substance: biotinylated CBD-1: CBD-1 peptide with a biotinyl moiety coupled at the N terminus (Biotin-LEQIWNNMTWMQWDK)
- caveolin purified from crude extracts with the biotinylated peptide (caveolin; 0, 2, 5, 10 and 20 μM biotinylated CBD-1, 4° C.): in a dose dependent manner
- capacity to bind caveolin in the presence of excess CBD-1 (caveolin; 50 μM CBD-1 before 10 μM biotinylated CBD-1): reduced capacity
- localization of the peptide in cells (HeLa cells; HeLa cells, 5 μM, 45 min at 37° C.): localized in the cytoplasm
